From article PMC10880893, “Structures of the holoenzyme TglHI required for 3-thiaglutamate biosynthesis” (Structure (London, England : 1993), 2023)
“Also recorded” adds a separate entry of the source.

Assays:
TglHI = type: biochemical, Pseudomonas syringae pv. maculicola ES4326
Protocol: TglHI protein and H2O2 (or EDTA) were initially incubated together for 10 min, and then protein was purified by size exclusion chromatography to remove excess H2O2 (or EDTA). The reaction between the H2O2 (EDTA)-treated TglHI and minimum substrate analog of TglA-Cys, β-NAD^+, and FDH was then monitored for the levels of NADH.
(A) In vitro activity assay of the modification of the minimum substrate analog of TglA-Cys by TglHI with treatment of H2O2 in the presence of formate dehydrogenase (FDH) and β-NAD+. NADH formation was […]
(B) In vitro activity assay of the modification of the minimum substrate analog of TglA-Cys by TglHI with […]
treatment of EDTA (5 mM, 10 mM, 20 mM).

[1] = target: TglHI holoenzyme (Pseudomonas syringae pv. maculicola ES4326); assay: ITC
[2] = Solubility on (co-)expression in E. coli, SDS-PAGE; type: physicochemical; details: expression in E. coli BL21, SDS-PAGE
Protocol: The tglH (NCBI accession No. WP_007252215.1) and tglI (NCBI accession No. WP_007252216.1) genes from Pseudomonas syringae pv. maculicola (P. syringae) ES4326 were codon-optimized for expression in E. coli (the optimized sequences are provided in KRT) and subcloned into the pRSFDuet-1 vector. E. coli BL21 (DE3) cells containing the tglHI-pRSFDuet-1 plasmid were grown in Luria broth (LB) medium at 37 °C and 220 rpm to an optical density at 600 nm (OD600) of 0.6. Fe-containing TglHI proteins were obtained by the addition of 1 mM (NH4)2Fe(SO4)2 in LB medium. Subsequently, cultures were induced at 16 °C with the addition of isopropyl β-D-thiogalactoside (IPTG) at a final concentration of 0.2 mM. […] After cell lysis, lysates were centrifuged at 18000 rpm for 30 min to obtain the supernatant containing the target protein. […] The purity of the purified proteins was assessed using sodium dodecyl sulfate‒polyacrylamide gel electrophoresis (SDS‒PAGE) and they were flash-frozen with liquid nitrogen for subsequent crystallization and biochemical analysis. […]
(B) The tglH and tglI genes were inserted into the pRSF-DuET-1 vector for co-expression, and the complexes were purified through nickel affinity columns. […] The proteins were then eluted and analyzed by SDS-PAGE. […]

In the case of `OO` [H2O2], the “TglHI activity after pretreatment with H2O2” value (TglHI; 10 min incubation, then size exclusion chromatography, NADH at 340 nm) is reported as “background; also recorded: loss of TglHI activity”.

With “TglA-Cys analog containing the C-terminal 19 amino acids (peptide)” the Kd [1] was 8.5 µM.

In the case of `O=C(O)CN(CCN(CC(=O)O)CC(=O)O)CC(=O)O` [EDTA], the “TglHI activity after treatment with EDTA” value (TglHI; EDTA 5 mM, 10 mM, 20 mM, 10 min incubation, then size exclusion chromatography) is reported as “merely attenuated the enzymatic activity of TglHI instead of abolishing the activity” and the “effect of higher EDTA concentrations on TglHI” value (TglHI; higher concentrations than 5, 10, 20 mM) is reported as “precipitation”.

B1: TglH: Fe-dependent DUF692 catalytic subunit (protein)
chain: MPDFVKPAPIGVGIQYNPEILDWFPFEDIQVDILEILLDNIMAPMDGPQIIKPSAQAMIERLGQKFTLLAHSNYGCDFGFSALEETAAVQRHVPLAKMLNSPWVANHCFYGDQSWLDIWSSPIQFSAAEVARCADRAQSLQTLYGMPLAHENAAYYLECPGAEMREAEFLARLVQRSGTFLHLDLHNIYTNHLNLKGFDLKDYMDTLPLDKVISVHLAGGSWHGGLYHDWHDACVPEPVWDLYEDLLSRAQPSAVILEYQGQAHHAQTRIMDASDESMIVRDVQRAQAIWSRYNRHPQERQYGS
With B1 the “solubility of protein / complex” value [2] was “expressed partially in soluble form”.

B2: TglI: recruitment subunit with RRE domain (protein)
chain: MEAEQVWKLWRRVLRDERLQAQLFSATDATHWLSGFSESESKILSVYAQQFDRVKWFVENYQFRLVNSFLNALETGAPLSLRALLHINVDLNAQSKAFLRDRQWRDYGPQVYTYCEDVLGFLAEADELQGYPEILDLMRLERESVRLYRGLVDPESLPADNRYQRTSMARLYETRFALSGWLRQKDQLGLTRLPESTEHVLIYLPTLQARHKFTLINAQAARLYNCLEQPQSAAGLFMLINSDSASVPGSADLALLDRLEQLNAIRKPL
For B2, the “solubility of protein / complex” value [2] was “insoluble when expressed alone and only soluble when co-expressed with TglH”.
